For ten compounds, Ratio ED50 and EC50 results are on record in ChEMBL document CHEMBL1149393, “Single-site chemical modification at C10 of the baccatin III core of paclitaxel and Taxol C reduces P-glycoprotein interactions in bovine brain microvessel endothelial cells” (Bioorg Med Chem Lett, 2006).

Experiment [1] has as its target T1, Tubulin (Homo sapiens) (UniProt P68371+Q9H4B7+P0DPH7+P68366+Q13509+Q71U36+P04350+Q3ZCM7+P07437+P68363+Q9BQE3+Q6PEY2+Q13885+Q9BVA1+Q9BUF5). Kind of experiment: Activity in tubulin assembly assay relative to paclitaxel. It is filed as functional.
For experiment [2], the target named is T1, Tubulin (Homo sapiens). In words: Cytotoxicity against multidrug resistant breast cancer MCF7/ADR cell line relative to paclitaxel. It is filed as functional, cell-based. As to conditions: NCI/ADR-RES.
The target in experiment [3] is T1, Tubulin (Homo sapiens). In words: Cytotoxicity against human breast cancer MCF7 cell line relative to paclitaxel. The format is functional, cell-based.
In the next experiment the test system is NCI/ADR-RES. In words: Cytotoxicity against multidrug resistant breast cancer MCF7/ADR cell line. It is filed as functional. As to conditions: Homo sapiens, read-out: ED50 (the source's name).
In a further experiment the test system is MCF7. Kind of experiment: Cytotoxicity against human breast cancer MCF7 cell line. The format is functional. As to conditions: read-out: ED50 (the source's name).

`CCCCCC(=O)N[C@@H](c1ccccc1)[C@@H](O)C(=O)O[C@H]1C[C@@]2(O)[C@@H](OC(=O)c3ccccc3)[C@@H]3[C@]4(OC(C)=O)CO[C@@H]4C[C@H](O)[C@@]3(C)C(=O)[C@@H](OC(C)=O)C(=C1C)C2(C)C`: the Ratio ED50 on Tubulin (Homo sapiens) [1] is 0.21; at Tubulin (Homo sapiens) [2], 1.6; at Tubulin (Homo sapiens) [3], 3.2.

In the case of `CCC(=O)O[C@@H]1C(=O)[C@@]2(C)[C@H]([C@H](OC(=O)c3ccccc3)[C@]3(O)C[C@H](OC(=O)[C@H](O)[C@@H](NC(=O)c4ccccc4)c4ccccc4)C(C)=C1C3(C)C)[C@]1(OC(C)=O)CO[C@@H]1C[C@@H]2O`, the Ratio ED50 amounted to 4.1 at Tubulin (Homo sapiens) [1], 1.1 at Tubulin (Homo sapiens) [2] and 2.6 at Tubulin (Homo sapiens) [3].

For `CC(=O)O[C@H]1C(=O)[C@@]2(C)[C@H]([C@H](OC(=O)c3ccccc3)[C@]3(O)C[C@H](OC(=O)[C@H](O)[C@@H](NC(=O)c4ccccc4)c4ccccc4)C(C)=C1C3(C)C)[C@]1(OC(C)=O)CO[C@@H]1C[C@@H]2O` [PACLITAXEL], the EC50 with NCI/ADR-RES is 1.53 nM; in the experiment with MCF7, 3.23 nM. Moreover, the Ratio ED50 at Tubulin (Homo sapiens) [1] turned out to be 1.

Consider `CC(=O)O[C@@H]1C(=O)[C@@]2(C)[C@H]([C@H](OC(=O)c3ccccc3)[C@]3(O)C[C@H](OC(=O)[C@H](O)[C@@H](NC(=O)c4ccccc4)c4ccccc4)C(C)=C1C3(C)C)[C@]1(OC(C)=O)CO[C@@H]1C[C@@H]2O`, for which the Ratio ED50 on Tubulin (Homo sapiens) [1] is 0.8; at Tubulin (Homo sapiens) [2] it was 1.3; on Tubulin (Homo sapiens) [3] it was 0.7.

Consider `CCCCCC(=O)N[C@@H](c1ccccc1)[C@@H](O)C(=O)O[C@H]1C[C@@]2(O)[C@@H](OC(=O)c3ccccc3)[C@@H]3[C@]4(OC(C)=O)CO[C@@H]4C[C@H](O)[C@@]3(C)C(=O)[C@H](O)C(=C1C)C2(C)C`, for which the results for the Ratio ED50 on Tubulin (Homo sapiens) [1], at Tubulin (Homo sapiens) [2] and at Tubulin (Homo sapiens) [3] were 2.2, 3.8 and 4.8, respectively.

For the compound `CCCCCC(=O)N[C@@H](c1ccccc1)[C@@H](O)C(=O)O[C@H]1C[C@@]2(O)[C@@H](OC(=O)c3ccccc3)[C@@H]3[C@]4(OC(C)=O)CO[C@@H]4C[C@H](O)[C@@]3(C)C(=O)[C@@H](OC(=O)CC)C(=C1C)C2(C)C`, the Ratio ED50 on Tubulin (Homo sapiens) [1] was determined as 2.1; at Tubulin (Homo sapiens) [2], 2.9; on Tubulin (Homo sapiens) [3], 3.8.

As to `CC(=O)O[C@@]12CO[C@@H]1C[C@H](O)[C@@]1(C)C(=O)[C@H](O)C3=C(C)[C@@H](OC(=O)[C@H](O)[C@@H](NC(=O)c4ccccc4)c4ccccc4)C[C@@](O)([C@@H](OC(=O)c4ccccc4)[C@H]21)C3(C)C`, the figures for the Ratio ED50 at Tubulin (Homo sapiens) [1], at Tubulin (Homo sapiens) [2] and on Tubulin (Homo sapiens) [3] were 2.1, 6.6 and 7.5, respectively.

In the case of `CCCCCC(=O)N[C@@H](c1ccccc1)[C@@H](O)C(=O)O[C@H]1C[C@@]2(O)[C@@H](OC(=O)c3ccccc3)[C@@H]3[C@]4(OC(C)=O)CO[C@@H]4C[C@H](O)[C@@]3(C)C(=O)[C@H](OC(C)=O)C(=C1C)C2(C)C`, the results for the Ratio ED50 on Tubulin (Homo sapiens) [1], at Tubulin (Homo sapiens) [2] and on Tubulin (Homo sapiens) [3] were 2, 0.48 and 2.2, respectively.

In the case of `CCCCCC(=O)N[C@@H](c1ccccc1)[C@@H](O)C(=O)O[C@H]1C[C@@]2(O)[C@@H](OC(=O)c3ccccc3)[C@@H]3[C@]4(OC(C)=O)CO[C@@H]4C[C@H](O)[C@@]3(C)C(=O)[C@@H](O)C(=C1C)C2(C)C`, the Ratio ED50 was 1.6 on Tubulin (Homo sapiens) [1], 3.1 at Tubulin (Homo sapiens) [2] and 9.2 on Tubulin (Homo sapiens) [3].

Take `CC(=O)O[C@@]12CO[C@@H]1C[C@H](O)[C@@]1(C)C(=O)[C@@H](O)C3=C(C)[C@@H](OC(=O)[C@H](O)[C@@H](NC(=O)c4ccccc4)c4ccccc4)C[C@@](O)([C@@H](OC(=O)c4ccccc4)[C@H]21)C3(C)C`: the Ratio ED50 on Tubulin (Homo sapiens) [1] was 3.2; at Tubulin (Homo sapiens) [2], 0.7; at Tubulin (Homo sapiens) [3], 1.4.
